Experiments:
[1] = tested on: LK2 cells; test: Cell growth inhibitory activity, LK2 cells (Test Example 3); format: cell-based; conditions: Homo sapiens, LK-2, 72 h, cultured for 3 days, CellTiter-Glo
Procedure: (§1) [Test Example 3] Evaluation of Cell Growth Inhibitory Activity
(§2) As a culture medium for each cell, a 10% FBS supplemented RPMI 1640 medium (for LK2 cells and TE-8 cells derived from human esophageal cancer) was used. LK2 cells were purchased from Human Science Research Resources Bank, and TE-8 cells were purchased from Riken Cell Bank. The compound of each of Examples 1 to 108b was prepared by dilution with Freedom EVO 150 (Tecan Trading AG) (4-fold diluted, 10 stages, 10 mM to 38 nM). The resultant was added to respective wells of a 384-well plate in an amount of 40 nL/well using Echo 555 (Labcyte Inc.). The LK2 or TE-8 cells were seeded in the plate at 400 cells/40 μL/well (day 0), and were cultured for 3 days. On the day of addition of the compound (day 0) and 3 days after the addition of the compound (day 3), an ATP measurement reagent of CellTiter-Glo (registered trademark) 2.0 Assay (Promega Corporation, #G9242) was added to each well in an amount of 10 μL/well, and the amount of luminescence of each well was measured using EnVision. Based on the amount of luminescence (C0) on the day of the addition of the compound, and the amounts of luminescence of a compound non-addition group (C3) and a compound addition group (T3) obtained after the 3-day culture of the compound, a cell survival rate was calculated in accordance with the following expression: Cell survival rate (%)=(T3−C0)/(C3−C0)×100
(§3) A concentration (GI50 value) of each compound at which the growth of the TE-8 or LK-2 cells was inhibited by 50% was calculated by semilogarithmically plotting the cell survival rate at each concentration and the compound concentration.

[2] = tested on: TE-8 cells; test: Cell growth inhibitory activity, TE-8 cells (Test Example 3); format: cell-based; conditions: Homo sapiens, 72 h, cultured for 3 days, CellTiter-Glo
Procedure: as §1, §2, §3

[3] = molecular target: EP300 (Homo sapiens, UniProt Q09472); test: Histone acetyltransferase inhibitory activity against EP300 (Test Example 1); format: biochemical; conditions: 50 ng/mL EP300, 2 μM Acetyl-CoA, 100 nM Histone H4(1-25)-GSGSK (Biotin), 28° C. for 1 hour
Chain of EP300 (Q09472 whole entry): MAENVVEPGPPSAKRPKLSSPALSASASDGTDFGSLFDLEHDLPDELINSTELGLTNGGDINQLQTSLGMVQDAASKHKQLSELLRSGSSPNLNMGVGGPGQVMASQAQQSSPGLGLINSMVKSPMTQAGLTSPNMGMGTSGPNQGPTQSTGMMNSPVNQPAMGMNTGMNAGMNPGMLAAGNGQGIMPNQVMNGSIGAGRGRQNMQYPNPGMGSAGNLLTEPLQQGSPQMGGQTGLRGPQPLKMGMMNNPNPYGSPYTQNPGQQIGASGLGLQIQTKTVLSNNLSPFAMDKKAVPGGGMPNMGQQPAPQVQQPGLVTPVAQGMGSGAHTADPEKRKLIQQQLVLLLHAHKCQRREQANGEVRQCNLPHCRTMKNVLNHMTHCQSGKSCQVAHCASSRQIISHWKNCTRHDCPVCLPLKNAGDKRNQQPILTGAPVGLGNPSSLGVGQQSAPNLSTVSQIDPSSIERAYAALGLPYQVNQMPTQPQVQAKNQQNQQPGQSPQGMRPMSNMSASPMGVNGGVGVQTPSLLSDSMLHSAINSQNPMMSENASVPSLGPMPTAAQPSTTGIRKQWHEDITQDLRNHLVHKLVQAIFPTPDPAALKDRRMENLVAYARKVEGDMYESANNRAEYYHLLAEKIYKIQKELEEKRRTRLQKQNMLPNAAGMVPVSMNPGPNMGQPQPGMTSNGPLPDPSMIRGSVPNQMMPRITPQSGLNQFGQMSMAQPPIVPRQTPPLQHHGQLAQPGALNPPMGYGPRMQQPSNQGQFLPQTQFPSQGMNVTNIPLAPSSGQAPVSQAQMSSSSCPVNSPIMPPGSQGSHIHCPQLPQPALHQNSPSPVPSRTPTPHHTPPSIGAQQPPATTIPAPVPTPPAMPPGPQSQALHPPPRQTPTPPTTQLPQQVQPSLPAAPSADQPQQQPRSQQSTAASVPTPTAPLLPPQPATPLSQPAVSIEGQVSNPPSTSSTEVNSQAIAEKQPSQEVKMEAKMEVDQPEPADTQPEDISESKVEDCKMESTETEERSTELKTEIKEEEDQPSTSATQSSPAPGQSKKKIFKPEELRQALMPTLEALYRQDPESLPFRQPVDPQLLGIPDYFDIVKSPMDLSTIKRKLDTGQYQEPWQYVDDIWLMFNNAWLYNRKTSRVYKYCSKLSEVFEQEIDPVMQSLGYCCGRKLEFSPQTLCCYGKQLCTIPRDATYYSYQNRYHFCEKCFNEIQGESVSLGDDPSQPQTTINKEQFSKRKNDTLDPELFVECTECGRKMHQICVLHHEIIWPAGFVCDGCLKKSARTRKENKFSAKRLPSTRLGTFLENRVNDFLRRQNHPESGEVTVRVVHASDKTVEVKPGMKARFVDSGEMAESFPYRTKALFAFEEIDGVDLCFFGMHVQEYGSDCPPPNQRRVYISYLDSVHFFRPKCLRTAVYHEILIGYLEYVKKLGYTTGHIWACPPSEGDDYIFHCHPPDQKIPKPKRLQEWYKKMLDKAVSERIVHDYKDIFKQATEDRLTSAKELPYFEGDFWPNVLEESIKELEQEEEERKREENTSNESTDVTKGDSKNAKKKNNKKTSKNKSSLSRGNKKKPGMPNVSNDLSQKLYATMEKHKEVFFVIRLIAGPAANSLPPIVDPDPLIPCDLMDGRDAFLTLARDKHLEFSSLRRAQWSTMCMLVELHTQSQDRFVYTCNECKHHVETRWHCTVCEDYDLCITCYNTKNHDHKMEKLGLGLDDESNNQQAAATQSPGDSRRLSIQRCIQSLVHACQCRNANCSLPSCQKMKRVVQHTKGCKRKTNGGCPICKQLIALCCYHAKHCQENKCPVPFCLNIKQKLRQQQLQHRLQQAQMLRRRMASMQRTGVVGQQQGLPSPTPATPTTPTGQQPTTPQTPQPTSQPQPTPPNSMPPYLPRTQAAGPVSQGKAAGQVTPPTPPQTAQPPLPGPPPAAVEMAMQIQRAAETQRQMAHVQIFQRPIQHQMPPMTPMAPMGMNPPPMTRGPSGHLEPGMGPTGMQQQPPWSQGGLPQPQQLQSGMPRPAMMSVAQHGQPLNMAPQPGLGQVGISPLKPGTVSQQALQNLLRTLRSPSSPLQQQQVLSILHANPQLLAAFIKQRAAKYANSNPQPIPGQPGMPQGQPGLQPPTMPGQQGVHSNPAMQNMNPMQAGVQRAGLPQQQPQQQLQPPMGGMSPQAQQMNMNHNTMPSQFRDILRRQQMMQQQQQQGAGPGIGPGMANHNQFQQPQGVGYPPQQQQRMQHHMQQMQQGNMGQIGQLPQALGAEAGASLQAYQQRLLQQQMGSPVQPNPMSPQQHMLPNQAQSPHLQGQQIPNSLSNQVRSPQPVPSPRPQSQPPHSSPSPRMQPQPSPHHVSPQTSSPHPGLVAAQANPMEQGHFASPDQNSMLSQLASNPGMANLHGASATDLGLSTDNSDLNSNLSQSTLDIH
Procedure: (§4) [Test Example 1] Evaluation of Histone
(§5) Acetyltransferase Inhibitory Activity against EP300 and CREBBP
(§6) 10 μL each of reaction solutions each containing a different concentration of the compound of each of Examples 1 to 108b (50 mM Tris-HCl (pH8.0), 0.1 mM EDTA, 1 mM dithiothreitol, 0.01% Tween-20, 0.01% Bovine serum albumin, 330 nM trichostatin A, 2 μM Acetyl-CoA (Sigma-Aldrich, #A2056), 100 nM Histone H4(1-25)-GSGSK (Biotin) (Anaspec, #65242-1), 1% dimethyl sulfoxide, 10 to 0.0006 μM of each compound, 50 ng/mL EP300 or 125 ng/mL CREBBP) was added to respective wells of a 384-well plate, and cultured at 28° C. for 1 hour. Thereafter, 5 μL of 30 μM Lys-CoA (Daiichi Sankyo Co., Ltd.) dissolved in LANCE detection buffer (Perkin Elmer Co., Ltd., #CR97-100) was added to each well. Furthermore, 5 μL of LANCE detection buffer containing 2 nM Eu-anti pan-Ac (Perkin Elmer Co., Ltd., #TRF0412) and 50 nM Sta-Ulight (Perkin Elmer Co., Ltd., #TRF0102) was added to each well, and the resultant was cultured at room temperature overnight. EnVision (Perkin Elmer Co., Ltd., Model 2104-0020) was used to measure ULight signals. […] EP300 and CREBBP were produced and purified by Daiichi Sankyo RD Novare Co., Ltd.

[4] = tested on: H3K27Ac; test: Intracellular H3K27Ac inhibitory activity in LK2 cells (Test Example 2); format: cell-based; conditions: Homo sapiens, LK-2, cultured with compound for 3 hours, read-out: Test Example 2 H3K27Ac Inhibition (LK2) IC50
Procedure: [Test Example 2] Evaluation of Intracellular H3K27Ac Inhibitory Activity
LK2 cells derived from human squamous cell lung cancer were seeded in a 96 well plate at 40000 cells/100 μL/well, and were cultured overnight at 37° C. in 5% CO2. The LK2 cells were purchased from Human Science Research Resources Bank. […] The supernatant was discarded, 4% paraformaldehyde was added thereto at 100 μL/well, and the resultant was allowed to stand still at room temperature for 15 minutes. The 4% paraformaldehyde was discarded, and the resultant was washed with PBS-T. A quenching buffer (PBS-T containing 1% H2O2) was added thereto at of 100 μL/well, and the resultant was allowed to stand still at room temperature for 10 minutes. The resultant was washed with PBS-T, a blocking buffer (StartingBlocK T20 (TBS) Blocking Buffer (Thermo […], #37543)) was added thereto at 200 μL/well, and the resultant was allowed to stand still at room temperature for 1 hour. The supernatant was discarded, Acetyl-Histone H3 (Lys27) (D5E4) XP (registered trademark) Rabbit mAb (cell Signaling, #8173) diluted with a blocking buffer was added thereto at 50 μL/well, and the resultant was allowed to stand still at 4° C. overnight. The resultant was washed with PBS-T, Anti-Rabbit IgG-HRP (Cell Signaling, #7074S) diluted with a blocking buffer was added thereto at 50 μL/well, and the resultant was cultured at room temperature for 1 hour. The resultant was washed with PBS-T, SuperSignal (registered trademark) ELISA Pico Chemiluminescent Substrate (Thermo […], #37069) was added thereto at 50 μL/well, and a signal was measured using EnVision.

[5] = molecular target: CREBBP (Homo sapiens, UniProt Q92793); test: Histone acetyltransferase inhibitory activity against CREBBP (Test Example 1); format: biochemical; conditions: 125 ng/mL CREBBP, 2 μM Acetyl-CoA, 100 nM Histone H4(1-25)-GSGSK (Biotin), 28° C. for 1 hour
Chain of CREBBP (Q92793 whole entry): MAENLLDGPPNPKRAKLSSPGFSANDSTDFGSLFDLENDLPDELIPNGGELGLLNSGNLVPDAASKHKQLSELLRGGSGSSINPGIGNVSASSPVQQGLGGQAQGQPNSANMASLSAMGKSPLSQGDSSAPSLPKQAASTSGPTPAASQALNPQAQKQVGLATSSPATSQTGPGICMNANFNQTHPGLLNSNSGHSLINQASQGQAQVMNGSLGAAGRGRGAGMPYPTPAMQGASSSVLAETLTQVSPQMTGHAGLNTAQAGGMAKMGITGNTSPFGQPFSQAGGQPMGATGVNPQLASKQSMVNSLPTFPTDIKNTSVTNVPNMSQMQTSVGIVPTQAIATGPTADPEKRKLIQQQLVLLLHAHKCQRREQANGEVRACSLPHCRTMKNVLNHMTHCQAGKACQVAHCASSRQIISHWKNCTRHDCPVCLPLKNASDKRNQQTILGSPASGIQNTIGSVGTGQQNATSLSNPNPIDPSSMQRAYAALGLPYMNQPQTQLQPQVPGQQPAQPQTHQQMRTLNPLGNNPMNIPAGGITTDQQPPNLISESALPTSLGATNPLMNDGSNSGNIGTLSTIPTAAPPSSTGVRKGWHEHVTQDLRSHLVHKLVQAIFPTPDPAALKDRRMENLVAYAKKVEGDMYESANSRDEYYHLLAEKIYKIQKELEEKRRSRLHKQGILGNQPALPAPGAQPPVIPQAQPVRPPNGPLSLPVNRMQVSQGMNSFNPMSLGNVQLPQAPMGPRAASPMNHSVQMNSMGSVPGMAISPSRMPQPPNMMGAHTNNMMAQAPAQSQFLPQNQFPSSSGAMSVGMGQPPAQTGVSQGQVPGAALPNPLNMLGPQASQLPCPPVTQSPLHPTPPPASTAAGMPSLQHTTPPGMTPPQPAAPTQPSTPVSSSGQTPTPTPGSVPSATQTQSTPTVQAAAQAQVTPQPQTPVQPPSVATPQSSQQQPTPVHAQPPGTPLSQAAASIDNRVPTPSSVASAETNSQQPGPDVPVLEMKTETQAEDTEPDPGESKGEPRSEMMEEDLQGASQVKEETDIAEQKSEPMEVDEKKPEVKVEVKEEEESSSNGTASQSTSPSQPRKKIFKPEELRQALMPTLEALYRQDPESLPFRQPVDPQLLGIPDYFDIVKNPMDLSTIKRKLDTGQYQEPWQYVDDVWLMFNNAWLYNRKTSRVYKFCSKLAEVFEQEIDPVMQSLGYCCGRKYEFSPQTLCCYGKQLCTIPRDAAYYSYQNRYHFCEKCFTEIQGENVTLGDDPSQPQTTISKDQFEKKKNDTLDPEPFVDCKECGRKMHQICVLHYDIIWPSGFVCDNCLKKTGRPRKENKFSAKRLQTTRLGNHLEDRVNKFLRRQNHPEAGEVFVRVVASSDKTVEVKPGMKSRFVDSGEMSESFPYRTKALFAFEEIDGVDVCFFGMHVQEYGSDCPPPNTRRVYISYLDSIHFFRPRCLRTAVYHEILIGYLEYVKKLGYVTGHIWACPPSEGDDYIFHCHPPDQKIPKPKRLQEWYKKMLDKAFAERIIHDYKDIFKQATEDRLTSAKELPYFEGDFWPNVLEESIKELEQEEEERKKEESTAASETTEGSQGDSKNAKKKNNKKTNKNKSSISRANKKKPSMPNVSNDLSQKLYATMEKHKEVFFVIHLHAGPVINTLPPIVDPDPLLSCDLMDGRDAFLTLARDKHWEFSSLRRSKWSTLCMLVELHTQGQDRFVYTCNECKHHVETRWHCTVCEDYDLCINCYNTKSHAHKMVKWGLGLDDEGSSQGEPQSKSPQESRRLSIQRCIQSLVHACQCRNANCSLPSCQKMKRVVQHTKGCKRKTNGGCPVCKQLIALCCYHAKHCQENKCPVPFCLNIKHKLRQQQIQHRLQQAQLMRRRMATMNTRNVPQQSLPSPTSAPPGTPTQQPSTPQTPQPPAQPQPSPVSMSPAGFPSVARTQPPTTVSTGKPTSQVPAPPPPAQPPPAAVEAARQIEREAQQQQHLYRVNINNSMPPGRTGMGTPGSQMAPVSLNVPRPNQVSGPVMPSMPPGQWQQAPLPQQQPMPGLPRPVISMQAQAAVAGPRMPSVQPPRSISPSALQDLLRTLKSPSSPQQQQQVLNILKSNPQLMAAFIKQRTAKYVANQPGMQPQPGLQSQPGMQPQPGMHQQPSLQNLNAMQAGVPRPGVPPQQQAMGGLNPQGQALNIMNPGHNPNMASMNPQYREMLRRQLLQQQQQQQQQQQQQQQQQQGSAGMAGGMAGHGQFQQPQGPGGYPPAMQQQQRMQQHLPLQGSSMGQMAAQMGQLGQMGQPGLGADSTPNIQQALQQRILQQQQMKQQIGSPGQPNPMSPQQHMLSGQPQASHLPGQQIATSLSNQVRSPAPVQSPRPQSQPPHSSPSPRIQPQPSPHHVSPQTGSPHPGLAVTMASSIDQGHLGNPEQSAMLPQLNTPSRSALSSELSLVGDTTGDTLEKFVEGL
Procedure: as §4, §5, §6

| IC50 [3] [nM] | IC50 [4] [nM] | IC50 [5] [nM] | Compound | GI50 [1] [nM] | GI50 [2] [nM] |
| --- | --- | --- | --- | --- | --- |
| 58 | 86 | 86 | COc1ccc(C2(C(=O)N3CC[C@@H](O)[C@@H]3C(=O)Nc3ccc4[nH]ccc4n3)CCC(F)(F)CC2)cc1 [Example 74, (3R)-1-{[4,4-Difluoro-1-(4-methoxyphenyl)cyclohexyl]carbonyl}-3-hydroxy-N-1H-pyrrolo[3,2-b]pyridin-5-yl-D-prolinamide] | 271 | 599 |
| 48 | 53 | 76 | COc1ccc(C2(C(=O)N3C[C@H](F)C[C@@H]3C(=O)Nc3ccc4[nH]ncc4n3)CC(C)(C)C2)cc1 [Example 57] | 310 | 473 |
| 31 | 101 | 128 | COc1ccc(C2(C(=O)N3C[C@H](F)C[C@@H]3C(=O)Nc3ccc4[nH]ncc4n3)CCOCC2)cc1 [Example 45, (4R)-4-Fluoro-1-{[4-(4-methoxyphenyl)tetrahydro-2H-pyran-4-yl]carbonyl}-N-1H-pyrazolo[4,3-b]pyridin-5-yl-D-prolinamide] | 733 | 1350 |
| 49 | 42 | 122 | COc1ccc(C2(C(=O)N3CS(=O)(=O)C[C@@H]3C(=O)Nc3ccc4[nH]ncc4n3)CCC(F)(F)CC2)cc1 [Example 68, (4S)-3-{[4,4-Difluoro-1-(4-methoxyphenyl)cyclohexyl]carbonyl}-N-(1H-pyrazolo[4,3-b]pyridin-5-yl)-1,3-thiazolidine-4-carboxamide 1,1-dioxide] | 510 | 819 |
| 23 | 14 | 40 | O=C(Nc1ccc2[nH]ncc2n1)[C@H]1C[C@@H](F)CN1C(=O)C1(c2ccc(OCF)c(F)c2)CC(F)(F)C1 [Example 86] | 86.8 | 101 |
| 254 | 916 | 128 | COc1ccc(C2(C(=O)N3CCC[C@@H]3C(=O)Nc3ccc4[nH]ncc4c3)CCCC2)cc1 [Example 24, N-1H-Indazol-5-yl-1-{[1-(4-methoxyphenyl)cyclopentyl]carbonyl}-D-prolinamide] | 1620 | 4060 |
| 56 | 21 | 95 | O=C(Nc1ccc2[nH]ncc2n1)[C@H]1C[C@@H](F)CN1C(=O)C1(c2ccc(C(=O)C(F)(F)F)cc2)CCCCC1 [Example 61, (4R)-4-Fluoro-N-1H-pyrazolo[4,3-b]pyridin-5-yl-1-({1-[4-(trifluoroacetyl)phenyl]cyclohexyl}carbonyl)-D-prolinamide] | 149 | 216 |
| 60 | 173 | 75 | CC(C)(C(=O)N1C[C@H](F)C[C@@H]1C(=O)Nc1ccc2[nH]ncc2n1)c1ccc(OC(F)(F)F)cc1 [Example 58] | 699 | 1280 |
| 50 | 125 | 83 | COc1ccc(C2(C(=O)N3CCOCC(Cc4cccc5[nH]ncc45)C3)CCCC2)cc1 (single isomer, unassigned) [Example 108b, [6-(1H-Indazol-4-ylmethyl)-1,4-oxazepan-4-yl][1-(4-methoxyphenyl)cyclopentyl]methanone] | 1090 | 1160 |
| 43 | 67 | 77 | COc1ccc(C2(C(=O)N3CC(=O)C[C@@H]3C(=O)Nc3ccc4[nH]ccc4n3)CCC(F)(F)CC2)cc1 [Example 75, 1-{[4,4-Difluoro-1-(4-methoxyphenyl)cyclohexyl]carbonyl}-4-oxo-N-1H-pyrrolo[3,2-b]pyridin-5-yl-D-prolinamide] | 398 | 613 |
| 37 | 53 | 80 | CCOc1ccc(C2(C(=O)N3C[C@H](F)C[C@@H]3C(=O)Nc3ccc4[nH]ncc4n3)CC(F)(F)C2)cc1F [Example 88] | 201 | 351 |
| 41 | 16 | 64 | COC(=O)c1ccc(C2(C(=O)N3C[C@H](F)C[C@@H]3C(=O)Nc3ccc4[nH]ncc4n3)CCCCC2)cc1 [Example 81b, methyl 4-(1-{[(2R,4R)-4-Fluoro-2-(1H-pyrazolo[4,3-b]pyridin-5-ylcarbamoyl)pyrrolidin-1-yl]carbonyl}cyclohexyl)benzoate] | 231 | 258 |
| 56 | 311 | 76 | COc1cccc(C2(C(=O)N3C[C@H](F)C[C@@H]3C(=O)Nc3ccc4[nH]ncc4n3)CCC(F)(F)CC2)c1 [Example 93, (4R)-1-{[4,4-Difluoro-1-(3-methoxyphenyl)cyclohexyl]carbonyl}-4-fluoro-N-1H-pyrazolo[4,3-b]pyridin-5-yl-D-prolinamide] | 746 | 1050 |
| 40 | 126 | 84 | CS(=O)(=O)Nc1ccc(C2(C(=O)N3C[C@H](F)C[C@@H]3C(=O)Nc3ccc4[nH]ncc4n3)CCC(F)(F)CC2)cc1 [Example 102, (4R)-1-[(4,4-Difluoro-1-{4-[(methylsulfonyl)amino]phenyl}cyclohexyl)carbonyl]-4-fluoro-N-1H-pyrazolo[4,3-b]pyridin-5-yl-D-prolinamide] | 323 | 439 |
| 49 | 14 | 155 | COc1ccc(C2(C(=O)N(C)[C@H](CO)C(=O)Nc3ccc4[nH]ncc4n3)CCC(F)(F)CC2)cc1 [Example 107, 4,4-Difluoro-N-[(2R)-3-hydroxy-1-oxo-1-(1H-pyrazolo[4,3-b]pyridin-5-ylamino)propan-2-yl]-1-(4-methoxyphenyl)-N-methylcyclohexanecarboxamide] | 99.9 | 195 |
| 99 | 139 | 94 | COc1ccc(C2(C(=O)N3C[C@@H](O)C[C@@H]3C(=O)Nc3ccc4[nH]ncc4n3)CCCCC2)cc1 [Example 71, (4S)-4-Hydroxy-1-{[1-(4-methoxyphenyl)cyclohexyl]carbonyl}-N-1H-pyrazolo[4,3-b]pyridin-5-yl-D-prolinamide] | 797 | 1540 |

— US11274100B2, “EP300/CREBBP inhibitor” (Daiichi Sankyo Company, Limited, priority 2017, dated 2022)
